Source: the OligoGym collection
Where “and” joins values, the source holds several entries; their conditions need not be identical. Equal entries are not always repeated. After the bases stand the sugars from the 5' end (letter, count) and the backbone: PS all phosphorothioate, else s phosphorothioate and o phosphodiester by linkage. Methylation of C is not given here. e = 2'-O-(2-methoxyethyl) (MOE); k = constrained ethyl (cEt); d = 2'-deoxy (DNA)

Target: APOL1
Settings: ASO

Sequence | target mRNA inhibition (A431, 0.0625 µM) | target mRNA inhibition (A431, 0.25 µM) | target mRNA inhibition (A431, 1 µM) | target mRNA inhibition (A431, 0.0156 µM) [%] | target mRNA inhibition (A431, 2 µM) [%] | target mRNA inhibition (A431, 0.04 µM)
GATGGGTACTTCTGTT (sugars k4 d9 k3, PS) | 63% | 82% | 90% |  |  | 
GATTTTTCTTTGACCG (sugars k4 d9 k3, PS) | 80% and 81% | 95% and 94% | 99% and 98% |  |  | 
GCATTCAGAATTTCCA (sugars k2 d4 e3 k2 d5, PS) | 72% | 91% | 97% | 39 | 98 | 
GCGATTGTCTTGTTTT (sugars k4 d9 k3, PS) | 64% and 78% | 87% and 89% | 93% |  |  | 
GCTAATTTTCTGACTG (sugars kddddkekekeddddd, PS) |  |  |  |  | 88 | 
GCTAATTTTCTGACTG (sugars kkkddddkekeddddd, PS) | 42% | 70% | 87% | 10 | 93 | 
GCTTTAAACTCAGGTG (sugars kddddkekekeddddd, PS) |  |  |  |  | 67 | 
GCTTTAAACTCAGGTG (sugars kkddddkdkdkddddd, PS) | 63% | 83% | 94% | 25 | 96 | 
GGAATTATGGAATTGC (sugars k2 d4 e3 k2 d5, PS) | 38% | 84% | 96% | 8 | 99 | 
GGAATTATGGAATTGC (sugars kdddddkekekddddd, PS) |  |  |  |  | 92 | 
GGAATTATGGAATTGC (sugars kddddkekekeddddd, PS) |  |  |  |  | 88 | 
GGAATTATGGAATTGC (sugars kkdddddkekeddddd, PS) |  |  |  |  | 40 | 
GGAATTATGGAATTGC (sugars kkddddkekekkdddd, PS) |  |  |  |  | 74 | 
GGACATTGAACCTGGG (sugars k4 d9 k3, PS) | 50% | 78% | 86% |  |  | 
GGCCGTGTCACCCTAA (sugars k4 d9 k3, PS) | 51% | 45% | 52% |  |  | 
GGGAATTATGGAATTG (sugars kkkddddkekeddddd, PS) |  |  |  |  | 63 | 
GGGTCAAAAGCGATGG (sugars k4 d9 k3, PS) | 50% | 79% | 88% |  |  | 
GGTTATGAAATTATTG (sugars k3 d4 k3 e1 d5, PS) |  |  |  |  | 91 | 
GTAAGTATTGCCAGCT (sugars kkddddekekeddddd, PS) |  |  |  |  | 69 | 
GTAAGTATTGCCAGCT (sugars kkddddkekekddddd, PS) |  |  |  |  | 53 | 
GTAAGTGCTTTGATTC (sugars k4 d9 k3, PS) | 64% | 83% | 92% |  |  | 
GTATTGCCAGCTAAGG (sugars k4 d9 k3, PS) | 56% | 85% | 94% |  |  | 
GTATTGTTTTTGTGGG (sugars kdddddkekekddddd, PS) |  |  |  |  | 77 | 
GTATTTCTTGATGTGG (sugars kkddddekekeddddd, PS) |  |  | 96% |  | 96 | 58%
GTATTTCTTGATGTGG (sugars kkkddddkekekdddd, PS) |  |  |  |  | 73 | 
GTCCTTACTGCAGTTT (sugars k4 d9 k3, PS) | 60% | 83% | 93% |  |  | 

Sequence | target mRNA inhibition (A431, 0.0625 µM) | target mRNA inhibition (A431, 0.25 µM) | target mRNA inhibition (A431, 1 µM) | target mRNA inhibition (A431, 0.0156 µM) [%] | target mRNA inhibition (A431, 2 µM) [%] | target mRNA inhibition (A431, 0.04 µM)
GTGAGTATTGTTTTTG (sugars kkddddkekekddddd, PS) |  |  |  |  | 88 | 
GTTATATTTGATCCTC (sugars kekddddeekkddddd, PS) | 71% | 91% | 98% | 37 | 99 | 31%
GTTATATTTGATCCTC (sugars kkddddkdkdkddddd, PS) | 38% | 68% | 89% | 9 | 93 | 
GTTATATTTGATCCTC (sugars kkkddddkekeddddd, PS) | 65% | 88% | 96% | 32 | 98 | 
GTTATGAAATTATTGG (sugars k2 d4 e3 k2 d5, PS) |  |  |  |  | 54 | 
GTTATGAAATTATTGG (sugars k3 d4 k3 e1 d5, PS) | 56% | 85% | 93% | 21 | 96 | 
GTTATGAAATTATTGG (sugars kkkddddkdkdkdddd, PS) |  |  |  |  | 91 | 
GTTATGAAATTATTGG (sugars kkkddddkekekdddd, PS) |  |  |  |  | 79 | 
GTTCAAAAGCAGCATT (sugars k3 d5 k3 d5, PS) |  |  |  |  | 90 | 
GTTCAAAAGCAGCATT (sugars k4 d9 k3, PS) |  |  |  |  |  | 15% and 11%
GTTCAAAAGCAGCATT (sugars kekddddeekkddddd, PS) |  |  |  |  | 89 | 
GTTCAAAAGCAGCATT (sugars kkddddekekeddddd, PS) |  |  |  |  | 82 | 
GTTCAAAAGCAGCATT (sugars kkddddkekekddddd, PS) |  |  |  |  | 60 | 
GTTCAAAAGCAGCATT (sugars kkddddkekekkdddd, PS) |  |  |  |  | 34 | 
GTTCTAACTCTTGGGC (sugars kkddddkekekddddd, PS) |  |  |  |  | 61 | 
GTTCTAACTCTTGGGC (sugars kkkddddkekekdddd, PS) |  |  |  |  | 37 | 
GTTTTGTAAGTGCAAC (sugars kkddddkekekddddd, PS) |  |  |  |  | 88 | 
GTTTTGTTGCACCCTC (sugars k4 d9 k3, PS) | 65% | 82% | 95% |  |  | 
TATATTTGATCCTCAA (sugars kdddddkekekddddd, PS) |  |  |  |  | 89 | 
TATCAGATGGGTACTT (sugars k3 d4 k3 e1 d5, PS) |  |  |  |  | 69 | 
TATGGAATTGCAGATA (sugars k4 d9 k3, PS) | 8% | 46% | 74% |  |  | 
TATTCTCATGGTACAG (sugars k2 d4 e3 k2 d5, PS) |  |  |  |  | 71 | 
TATTCTCATGGTACAG (sugars kkkddddkekeddddd, PS) |  |  |  |  | 68 | 
TCAGATGGGTACTTCT (sugars kkddddkekekddddd, PS) |  |  |  |  | 82 | 
TCCTTATGCTTACTCC (sugars k4 d9 k3, PS) | 50% | 80% | 93% |  |  | 
TCTATTAGAGGGCTAG (sugars k2 d4 e3 k2 d5, PS) |  |  |  |  | 67 | 

Sequence | target mRNA inhibition (A431, 0.0625 µM) | target mRNA inhibition (A431, 0.25 µM) | target mRNA inhibition (A431, 1 µM) | target mRNA inhibition (A431, 0.0156 µM) [%] | target mRNA inhibition (A431, 2 µM) [%] | target mRNA inhibition (A431, 0.04 µM)
TCTCATGGTACAGGAG (sugars kkddddkekekkdddd, PS) |  |  |  |  | 26 | 
TGAGTATTGTTTTTGT (sugars k3 d4 k3 e1 d5, PS) | 69% | 88% | 94% | 43 | 95 | 
TGAGTATTGTTTTTGT (sugars kkkddddkekeddddd, PS) | 47% | 74% | 90% | 16 | 92 | 
TGGAAATGCCAAAGTC (sugars k4 d9 k3, PS) | 62% | 88% | 96% |  |  | 
TGGGAATTATGGAATT (sugars k2 d4 e3 k2 d5, PS) |  |  |  |  | 63 | 
TGGTTCAAAAGCAGCA (sugars k4 d9 k3, PS) | 60% | 84% | 94% |  |  | 
TGTAAGTGCAACCAAT (sugars kddddkekekeddddd, PS) |  |  |  |  | 67 | 
TGTCTTGCAAGGTTGT (sugars k4 d9 k3, PS) | 57% | 73% | 84% |  |  | 
TGTGTTTAGGCATTCA (sugars k4 d9 k3, PS) |  | 61% and 86% | 65% and 86% |  |  | 
TGTTATATTTGATCCT (sugars kkddddekekeddddd, PS) | 41% | 71% | 85% | 17 | 94 | 
TGTTCTAACTCTTGGG (sugars k4 d9 k3, PS) | 75% | 88% | 94% |  |  | 
TGTTTACTTACCGGGT (sugars k4 d9 k3, PS) | 60% and 83% | 86% and 91% | 91% and 93% |  |  | 
TGTTTAGGCATTCAGA (sugars k4 d9 k3, PS) | 59% and 37% |  | 86% and 64% |  |  | 
TTATACCAGTGTCTTC (sugars kkddddkekekkdddd, PS) |  |  |  |  | 68 | 
TTATATTTGATCCTCA (sugars k3 d4 k3 e1 d5, PS) |  |  |  |  | 96 | 
TTATATTTGATCCTCA (sugars kkddddkekekkdddd, PS) |  |  |  |  | 69 | 
TTATGAAATTATTGGT (sugars k3 d4 k3 e1 d5, PS) |  |  |  |  | 85 | 
TTATGAAATTATTGGT (sugars kkddddkdkdkddddd, PS) |  |  |  |  | 47 | 
TTATTCTCATGGTACA (sugars k2 d4 e3 k2 d5, PS) |  |  |  |  | 48 | 
TTATTCTCATGGTACA (sugars kkddddekekeddddd, PS) |  |  |  |  | 51 | 
TTCAGAATTTCCACTA (sugars kddddkekekeddddd, PS) |  |  |  |  | 62 | 
TTCTATTAGAGGGCTA (sugars k4 d9 k3, PS) | 51% and 40% | 81% and 72% | 92% and 84% and 98% |  |  | 68%
TTCTATTAGAGGGCTA (sugars kkddddekekeddddd, PS) |  |  |  |  | 85 | 
TTCTATTAGAGGGCTA (sugars kkddddkekekddddd, PS) |  |  |  |  | 53 | 
